Where “and” joins values, the source holds several entries; their conditions need not be identical. Equal values may be shown once.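 Cells were grown in 96-well plates and exposed to each compound for 48 hours at five concentrations; endpoints were interpolated linearly between bracketing concentrations, or set to the highest concentration if not reached. GI50 = concentration required for 50% inhibition of growth. Definition used: TGI = concentration required for complete inhibition of growth.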
Experiments:
Test in all cases: NCI anticancer screen, dose series, 48 h
[1] = tested on: 786-0 renal
[2] = tested on: DLD-1 colon
[3] = tested on: HL-60(TB) leukemia
[4] = tested on: RPMI-8226 leukemia
[5] = tested on: RXF 393 renal
[6] = tested on: SF-268 CNS
[7] = tested on: SK-OV-3 ovarian
[8] = tested on: U251 CNS
[9] = tested on: UACC-62 melanoma
[10] = tested on: DMS 114 small cell lung

SMILES	TGI [1]	TGI [2] [µM]	TGI [3]	TGI [4]	TGI [5]	TGI [6]	TGI [7]	TGI [8]	TGI [9]	TGI [10] [µM]	GI50 [1]	GI50 [10] [µM]	GI50 [3]	GI50 [4]	GI50 [5]	GI50 [7]	GI50 [8]	GI50 [9]	GI50 [6]	GI50 [2] [µM]
COc1ccc(S(=O)(=O)Nc2ccccc2C(=O)O)cc1	> 100 µM	> 100	> 100 µM	> 100 µM	> 100 µM	> 100 µM	> 100 µM	> 100 µM	> 100 µM											
CCOC(=O)C1N(S(=O)(=O)c2ccc(C)cc2)CCC12c1ccccc1N(C(C)=O)C2c1ccc(OC)c(OC)c1 (configuration not stated)	> 100 µM	> 100	> 100 µM	> 100 µM	> 100 µM	> 100 µM	> 100 µM	> 100 µM	> 100 µM	> 100										
CCCCCC[N+](C)(C)Cc1ccc(C[N+](C)(C)CCCCCC)cc1	18.1 µM	26.5		9.96 µM		> 100 µM	33.4 µM	7.28 µM	29.7 µM											
COC(=O)N(C(=O)OC)C(C(=O)O)C(C)C (configuration not stated)	> 100 µM	> 100	> 100 µM		> 100 µM	> 100 µM		> 100 µM		> 100										
Cc1[nH]c2ccccc2c1C(=O)CC1(O)C(=O)Nc2ccccc21 (configuration not stated)	> 100 µM	> 100	> 100 µM	> 100 µM	> 100 µM	> 100 µM	> 100 µM	> 100 µM	> 100 µM											
CCC[CH2][Sn]1([CH2]CCC)[O]CC(Cc2ccccc2)[O]1 (configuration not stated)	3.73 µM		2.31 µM	3.62 µM	2.84 µM		25.1 µM	3.91 µM	3.69 µM	3.59	1.86 µM	1.72	0.51 µM	0.312 µM	1.47 µM	12 µM	1.85 µM	1.7 µM		
Cc1ccc(NC(=O)C2C(=O)N(c3ccc(C)cc3)C(=O)/C2=N\NC(N)=S)cc1 (configuration not stated)	> 100 µM			> 100 µM	> 100 µM	> 100 µM	> 100 µM	> 100 µM	> 100 µM	> 100										
Cc1cc2c(ccc3c(C)cc(=O)oc32)o1	> 100 µM	> 100		> 100 µM	> 100 µM	> 100 µM	> 100 µM	> 100 µM	> 100 µM	> 100										
C=C1C(=O)O[C@@H]2C[C@@H](C)[C@@H]3C=CC(=O)[C@@]3(C)[C@@H](OC(=O)CC(=O)O[C@H]3[C@@H]4C(=C)C(=O)O[C@@H]4C[C@@H](C)[C@@H]4C=CC(=O)[C@]43C)[C@H]12	0.0355 µM	< 0.0215		0.0866 µM	0.0258 µM	0.374 µM	0.785 µM	0.149 µM	0.0716 µM	0.108										
Clc1ccc(SC(/C=C/NNC2=NC(c3ccccc3)C(c3ccccc3)=NN2)c2ccccc2)cc1 (configuration not stated)	> 100 µM	> 100	41.9 µM	30.3 µM		78.1 µM	> 100 µM	> 100 µM	85.3 µM	75.6										
FC(F)c1nc2ccccc2n1-c1nc(N2CCOCC2)nc(N2CCOCC2)n1	1.43 µM and 2.94 µM		> 100 µM	> 7.2 µM and 4.26 µM	0.625 µM and 0.674 µM	> 100 µM	1.03 µM and 1.94 µM	> 100 µM	0.86 µM and 1.94 µM		0.146 µM and 0.223 µM		0.153 µM and 0.351 µM	0.482 µM and 0.345 µM	0.0964 µM and 0.138 µM	0.175 µM and 0.27 µM	0.735 µM and 0.559 µM	0.0752 µM and 0.233 µM	0.361 µM and 0.6 µM	
O=C1c2ccccc2C(Br)(Br)c2ccccc21	> 31.6 µM	> 31.6	> 31.6 µM		> 31.6 µM	> 31.6 µM	> 31.6 µM	> 31.6 µM	> 100 µM	> 31.6										
O=C(CP(=O)(O)O)NC(CC(=O)OCc1ccccc1)C(=O)OCc1ccccc1 (configuration not stated)	> 100 µM		> 100 µM	> 100 µM	> 100 µM	> 100 µM	> 100 µM	> 100 µM	> 100 µM											
COc1ccc(-c2cc(=O)c3ccc(C)nc3[nH]2)cc1	> 100 µM		> 100 µM	> 100 µM	> 100 µM	> 100 µM	> 100 µM	> 100 µM	> 100 µM		> 100 µM		> 100 µM				> 100 µM			
Nc1ccc(C2=NN(c3ccccc3)C(c3ccc(Cl)cc3)C2)cc1 (configuration not stated)	4.22 µM		22.8 µM	4.88 µM	3.12 µM	19.8 µM	29.9 µM	2.79 µM	12.9 µM		2.03 µM		3.71 µM	1.86 µM	1.55 µM	9.09 µM	1.47 µM	3.12 µM	4.22 µM	
FC(F)(F)c1nc2nc(Cl)c(Cl)nc2n1CCCN1CCOCC1	> 100 µM		40.3 µM	> 100 µM	68.1 µM	> 100 µM	> 100 µM	> 100 µM	> 100 µM											
CC(C)(C)C(=O)c1c(C(F)(F)F)n([O-])c2ccccc2[n+]1=O	2.46 µM		1.08 µM	0.246 µM	2.28 µM	1.75 µM	3.07 µM	1.16 µM	2.66 µM		0.729 µM		0.204 µM	0.0234 µM	0.868 µM	1.67 µM	0.341 µM	1.33 µM	0.549 µM	
O=S(=O)(Nc1ccccc1Cl)c1ccc(-c2cnc(C3CC3)o2)cc1	> 85.1 µM		0.886 µM	22.7 µM	1.18 µM	> 100 µM	> 67.7 µM	> 100 µM	47.6 µM		0.809 µM		0.274 µM	0.541 µM	0.266 µM	1.23 µM	0.583 µM	0.402 µM	12.4 µM	

SMILES	TGI [1]	TGI [2] [µM]	TGI [3]	TGI [4]	TGI [5]	TGI [6]	TGI [7]	TGI [8]	TGI [9]	TGI [10] [µM]	GI50 [1]	GI50 [10] [µM]	GI50 [3]	GI50 [4]	GI50 [5]	GI50 [7]	GI50 [8]	GI50 [9]	GI50 [6]	GI50 [2] [µM]
COc1cc(-c2cc3ncccc3c3nc(N)c4cccnc4c23)cc(OC)c1OC	10.8 µM		0.717 µM	23.9 µM	6.48 µM	> 100 µM	72.5 µM	16.9 µM	19.4 µM		0.511 µM		0.217 µM	0.556 µM	0.742 µM	0.538 µM	0.553 µM	0.358 µM	0.752 µM	
O=C(CC(c1ccccc1)c1c(O)c2ccccc2oc1=O)c1ccccc1 (configuration not stated)	> 100 µM		> 100 µM	> 100 µM	> 100 µM	> 100 µM	> 100 µM	> 100 µM	> 100 µM											
COc1ccc(-c2cn[nH]c2-c2cc(OC)c3c(c2)OCO3)cc1	14.2 µM		0.771 µM	14.5 µM	0.684 µM	31 µM	5.45 µM	10.7 µM	14.9 µM		0.585 µM		0.22 µM	0.314 µM	0.176 µM	0.386 µM	0.321 µM	0.397 µM	0.854 µM	
CC(C)CC(NC(=O)c1cccc(O)c1O)C(=O)NCc1cc(CNC(=O)C(CC(C)C)NC(=O)c2cccc(O)c2O)cc(CNC(=O)C(CC(C)C)NC(=O)c2cccc(O)c2O)c1 (configuration not stated)	> 100 µM	> 100	19.2 µM	21.8 µM		> 100 µM	35.5 µM	29.5 µM	17.8 µM	18.4										
CCN(Cc1cccc(F)c1)c1ccc(CO)c(Cl)c1	30.3 µM		> 69.8 µM	> 56 µM	27.8 µM	> 82.8 µM	36.3 µM	26.5 µM	0.649 µM		10.5 µM		19.6 µM	5.98 µM	5.28 µM	6.68 µM	1.01 µM	0.0741 µM	29.9 µM	
CC(=O)[CH-]C(C)=O.CC(=O)[CH-]C(C)=O.[CH2-]CCC.[CH2-]CCC.[Sn+4]	1.56 µM	1.58	2.73 µM		0.292 µM	1.2 µM	3.09 µM	1.06 µM	1.18 µM	0.301	0.351 µM		0.347 µM		0.0699 µM	1.69 µM	0.304 µM	0.31 µM	0.291 µM	0.475
COc1cccc(-c2nc3sccn3c2-c2ccnc(NCCCNS(=O)(=O)c3cccc(F)c3)c2)c1	> 100 µM		4.91 µM	4.56 µM	> 100 µM	> 100 µM	> 100 µM	> 100 µM	5 µM		4.49 µM		1.84 µM	1.29 µM	2.47 µM	4.86 µM	4.77 µM	1.62 µM	3.26 µM	
[Cl-].[O-]/N=C(\c1ccccc1)c1ccccn1.[O-]/N=C(\c1ccccc1)c1ccccn1.[O-]/N=C(\c1ccccc1)c1ccccn1.[Sm+3]	65.5 µM	> 100	62.1 µM	> 100 µM		87.3 µM	> 100 µM	> 100 µM	78.7 µM	72	24.1 µM	23	20.1 µM	47.4 µM		32.6 µM	38 µM	26.2 µM	30 µM	33
COCCCNC(=O)C1C(=O)N(CCCOC)C(=O)/C1=N\N (configuration not stated)	> 100 µM	> 100	> 100 µM	> 100 µM	> 100 µM	> 100 µM		> 100 µM	> 100 µM	> 100										
Cc1nc(SCC(=O)Nc2nc(-c3ccc(Cl)cc3)cs2)n(Nc2ccccc2)c1C	13.7 µM		> 100 µM	> 100 µM	7.33 µM	20.1 µM	19.8 µM	13 µM	16.1 µM		3.6 µM		2.99 µM	3.55 µM	2.98 µM	5.91 µM	3.13 µM	3.09 µM	4.8 µM	
C=C(c1ccc2nc(NC(=O)OC)[nH]c2c1)c1cccs1	> 100 µM		> 32.7 µM	3.59 µM	> 100 µM	> 100 µM	> 45.1 µM	7.31 µM	> 100 µM											
C#Cc1cccc(N2C(=O)CCC2=O)c1	40.5 µM	50.1	10.4 µM	15.9 µM		33.1 µM	43 µM	33 µM	33.8 µM	21.8										
Cc1cnc(NC(=O)Nc2cc(Br)c(C)cc2OC[C@@H]2CNCCO2)cn1	> 10 µM and 5 µM		5.46 µM and 2.43 µM	> 10 µM and 8.52 µM		> 10 µM and 13.6 µM	> 10 µM and 12.3 µM	> 10 µM and 13.9 µM	6.82 µM		0.417 µM and 0.353 µM		0.388 µM and 0.545 µM	3.05 µM and 1.52 µM	0.564 µM and 0.219 µM	0.916 µM and 0.474 µM	2.44 µM and 3.07 µM	1.19 µM	3.66 µM and 2.33 µM	
CN[C@H]1C=C[C@@H]2/C=C(C)/C=C/[C@@H](C)[C@H]([C@H](C)[C@H](O)[C@@H](C)NC(C)=O)OC(=O)/C=C/C=C(C)\C=C\[C@]2(C)C1	> 49 µM		35.7 µM	33.2 µM	28.7 µM	> 49 µM		> 49 µM	19.7 µM		0.00836 µM		0.0332 µM	0.0049 µM	< 0.001 µM and 0.00674 µM	< 0.001 µM	< 0.001 µM and 0.0049 µM	0.022 µM	0.0821 µM and 0.042 µM	
CC(C)CCC(=O)c1ccoc1	> 100 µM		> 100 µM	> 100 µM	> 100 µM	> 100 µM	> 100 µM	> 100 µM	> 100 µM											
Cc1nn(-c2nc3ccccc3[nH]2)c(N)c1-c1ccc(Cl)cc1	> 100 µM		25.1 µM	> 100 µM	46.4 µM	> 100 µM	> 100 µM	> 100 µM	> 100 µM		8.31 µM		4.31 µM	4.37 µM	4.26 µM	7.4 µM	3.18 µM	5.9 µM	5.65 µM	
C=C(C)C(=O)O[C@H]1C[C@@]23O[C@@H]2CCC(=C[C@H]2OC(=O)C(=C)[C@H]12)COC3O (some centres not stated)	> 100 µM		48.3 µM	63 µM	89.6 µM	> 100 µM	> 100 µM	> 100 µM	> 100 µM											
O=c1nc(/C=C/c2ccccc2Cl)cc2n1CCN2CCO	> 100 µM	> 100	> 100 µM	> 100 µM	> 100 µM	> 100 µM	> 100 µM		> 100 µM	> 100										
